Data as given in US7407939B2, “Protein kinase inhibitors comprising ATP mimetics conjugated to peptides or peptidomimetics” (CureGenics Ltd., priority 2001, dated 2008).
Read-outs that look alike come from different tables or passages of the source. *1 amine or outer side, *2 acyl side, *3 side chain or, on linkers, in order; H or OH if unused. Where a SMILES comes first, the peptide text is derived from it. Side-chain parts run from the residue outwards. [ ]: non-standard residue; d: D form. The star is where a group is joined. Isoquinoline5sulfonyl = O=S(=O)(c1cccc2cnccc12)*; X2 = O=C(OCC(Cc1ccccc1)N[*:1])[*:2]; Ethylenediamine = C(CN[*:2])N[*:1]; hLeu = CC(C)CC[C@H](N)C(=O)O; Nle = CCCC[C@H](N)C(=O)O; Orn = NCCC[C@H](N)C(=O)O; Dab = NCC[C@H](N)C(=O)O; Nva = CCC[C@H](N)C(=O)O; Abu = CC[C@H](N)C(=O)O; Dap = NC[C@H](N)C(=O)O; Ava = NCCCCC(=O)O; βAla = NCCC(=O)O

Tests used:
[1] = biological target: T1, PKA (Bos taurus, UniProt P00517); assay: In vitro PKA kinase activity assay (kemptide / SPA beads); format: biochemical; design: % Inhibition PKA: concentration or dose not given beside the values; details: for inhibition at 1 µM: 1 μM compound concentration;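 on all read-outs here: Cell-free assay of purified PKA catalytic subunit phosphorylating the 7-mer kemptide substrate, run in MOPS buffer with magnesium acetate and BSA, with blank wells lacking enzyme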
T1 construct: purchased Promega

[2] = biological target: T2, PKB (Homo sapiens, UniProt P31749); assay: PKB in vitro kinase activity assay (soluble His-HA-PKB / SPA bead screening); format: biochemical; design: % Inhibition PKB I / % Inhibition PKB II: concentration or dose not given beside the values; details: for inhibition at 1 µM: 1 μM compound concentration
T2 construct: His; HA; made in house

[3] = system: PC-3 cells; assay: ssDNA apoptosis ELISA (induction of apoptosis in prostate cancer cells); format: cell-based; details: 50 μM, optical density of treated divided by untreated cells
Experimental: Cells were assayed for Apoptosis using the ssDNA Apoptosis ELISA kit (Chemicon International Inc.). Cells were seeded in 96-well plates (5000 cells/well) and treated with different concentrations of the inhibitors. At different time point, plates were centrifuges at 200 g for 5 min, medium was removed and the cells were fixed with 80% methanol in PBS for 30 min at room temperature. Plates were dried by floating in a waterbath at 37° C. for 20 minutes. 50 μl of Formamide was added to each well and incubate at room temperature for 10 min. Plates were heated to 75° C. in a circulating waterbath for 10 min, cooled in refrigerator for 5 min, and then formamide was removed. Plates were blocked by 3% non-fat dry milk in distilled water (w/v) for 1 hr at 37° C. Blocking was removed and 100 μl of antibody mixture (primary monoclonal antibody to ssDNA and HRP-labelled anti-mouse IgM) was added to each well. Plates were monitored for colour development by ABTS using microplate reader at 405 nm.
DNA in apoptotic cells is sensitive to denaturation by formamide in contrast to necrotic cells. This sensitivity is due to changes in apoptotic cells chromatin. The specific denaturation was detected with monoclonal antibody to single stranded DNA. Using ssDNA Apoptosis ELISA kit (Chemicon International, Inc.) chimeric compounds were analyzed for their potential to induce apoptosis in PC-3 cells compared to TRAIL (TNF-related apoptosis-inducing ligand), a known apoptotic agent (R&D Systems, Inc.). Results are presented in values of apoptotic index which is calculated by dividing the optical density of treated and untreated cells.

[4] = Assay 1, read-out: PKA-kinase Assay 1, % inhibition of kinase activity
[5] = Assay 2, read-out: PKA-kinase Assay 2, % inhibition of kinase activity
[6] = Table 1, most preferred compounds, read-out: IC50 PKA
[7] = Assay 1, read-out: PKB-kinase (spa) Assay 1, % inhibition of kinase activity
[8] = Assay 2, read-out: PKB-kinase (spa) Assay 2, % inhibition of kinase activity
[9] = Table 1, most preferred compounds, read-out: IC50 PKB
[10] = Table 6, most active compounds from plate TY-60020, read-out: IC50 PKA
[11] = Table 6, most active compounds from plate TY-60020, read-out: IC50 PKB
[12] = Table 3, linear 7-mer peptides, read-out: Activity PKA
[13] = Table 3, linear 7-mer peptides, read-out: Activity PKB
[14] = chimeric PTR compounds (peptide conjugated to isoquinoline small molecule), read-out: PKA IC50
[15] = chimeric PTR compounds (peptide conjugated to isoquinoline small molecule), read-out: PKB IC50

T2 sequence (P31749 whole entry, species assumed): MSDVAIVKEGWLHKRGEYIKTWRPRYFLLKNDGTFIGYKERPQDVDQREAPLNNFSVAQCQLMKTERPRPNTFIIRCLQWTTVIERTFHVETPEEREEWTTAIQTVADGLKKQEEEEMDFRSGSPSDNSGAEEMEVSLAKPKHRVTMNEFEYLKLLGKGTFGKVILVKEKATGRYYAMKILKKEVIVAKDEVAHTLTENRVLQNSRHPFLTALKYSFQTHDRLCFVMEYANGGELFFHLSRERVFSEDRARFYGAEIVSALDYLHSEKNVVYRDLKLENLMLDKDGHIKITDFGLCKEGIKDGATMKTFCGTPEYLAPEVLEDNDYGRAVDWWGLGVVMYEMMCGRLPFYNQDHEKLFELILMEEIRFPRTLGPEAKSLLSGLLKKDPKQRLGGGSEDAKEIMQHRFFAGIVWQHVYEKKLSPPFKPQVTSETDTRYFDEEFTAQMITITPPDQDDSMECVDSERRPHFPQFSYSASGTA

For `CCCC[C@H](NC(=O)[C@H](CCCNC(=N)N)NC(=O)[C@@H]1CCCN1C(=O)[C@@H](N)CCCNC(=N)N)C(=O)N[C@@H](CCC(=O)NCC(=O)NCCNS(=O)(=O)c1cccc2cnccc12)C(=O)N[C@@H](CCN)C(=O)N[C@@H](Cc1ccccc1)C(N)=O` [60020-57, Arg-Pro-Arg-Nle-Glu-(Gly-5-aminoethylsulfonamide)-Dab-Phe] (H-RPR[Nle]E([Gly-Ethylenediamine-Isoquinoline5sulfonyl])[Dab]F-NH2), the inhibition at 1 µM [1, 4] was 95%, the inhibition at 1 µM [1, 5] was 96% and the IC50 [1, 6] was 0.21 µM. For the same molecule, the inhibition at 1 µM [2, 7] was 92%, the inhibition at 1 µM [2, 8] was 93% and the IC50 [2, 9] was 0.07 µM.
With `CCCC[C@H](NC(=O)[C@H](CCCNC(=N)N)NC(=O)[C@@H]1CCCN1C(=O)[C@@H](N)CCCNC(=N)N)C(=O)N[C@@H](CCC(=O)NCC(=O)NCCNS(=O)(=O)c1cccc2cnccc12)C(=O)N[C@@H](CCN)C(=O)N[C@@H](CCC(C)C)C(N)=O` [60020-58, Arg-Pro-Arg-Nle-Glu-(Gly-5-aminoethylsulfonamide)-Dab-Hol] (H-RPR[Nle]E([Gly-Ethylenediamine-Isoquinoline5sulfonyl])[Dab][hLeu]-NH2) the inhibition at 1 µM [1, 4] was 98%, the inhibition at 1 µM [1, 5] was 99% and the IC50 [1, 6] was 0.05 µM. The inhibition at 1 µM [2, 7] was 89%, the inhibition at 1 µM [2, 8] was 93% and the IC50 [2, 9] was 0.12 µM.
With `CCCC[C@H](NC(=O)[C@H](CCCNC(=N)N)NC(=O)[C@@H]1CCCN1C(=O)[C@@H](N)CCCNC(=N)N)C(=O)N[C@@H](CCC(=O)NCC(=O)NCCNS(=O)(=O)c1cccc2cnccc12)C(=O)N[C@@H](CCCN)C(=O)N[C@@H](Cc1ccccc1)C(N)=O` [60020-59] (H-RPR[Nle]E([Gly-Ethylenediamine-Isoquinoline5sulfonyl])[Orn]F-NH2; N-terminus assumed) the inhibition at 1 µM [1, 4] was 92%, the inhibition at 1 µM [1, 5] was 93% and the IC50 [1, 10] was 0.2 µM. It also gave an inhibition at 1 µM [2, 7] of 62%, an inhibition at 1 µM [2, 8] of 75% and an IC50 [2, 11] of 0.3 µM.
`N=C(N)NCCC[C@H](NC(=O)[C@@H]1CCCN1C(=O)[C@@H](N)CCCNC(=N)N)C(=O)N[C@@H](CN)C(=O)N[C@@H](CCC(=O)NCCC(=O)NCCNS(=O)(=O)c1cccc2cnccc12)C(=O)N[C@@H](CCCN)C(=O)N[C@@H](Cc1ccccc1)C(N)=O` [60020-67] (H-RPR[Dap]E([βAla-Ethylenediamine-Isoquinoline5sulfonyl])[Orn]F-NH2; N-terminus assumed) was tested, and the IC50 [1, 10] was 0.25 µM, the inhibition at 1 µM [2, 7] was 51% and the inhibition at 1 µM [2, 8] was 68%. It also gave an IC50 [2, 11] of 1.08 µM.
For `CC(C)CC[C@H](NC(=O)[C@H](CCCN)NC(=O)[C@H](CCC(=O)NCCC(=O)NCCNS(=O)(=O)c1cccc2cnccc12)NC(=O)[C@H](CN)NC(=O)[C@H](CCCNC(=N)N)NC(=O)[C@@H]1CCCN1C(=O)[C@@H](N)CCCNC(=N)N)C(N)=O` [60020-68] (H-RPR[Dap]E([βAla-Ethylenediamine-Isoquinoline5sulfonyl])[Orn][hLeu]-NH2; N-terminus assumed), the IC50 [1, 10] was 0.25 µM, the inhibition at 1 µM [2, 7] was 61% and the inhibition at 1 µM [2, 8] was 74%. For the same molecule, the IC50 [2, 11] was 0.5 µM.
`CCCC[C@H](NC(=O)[C@H](CCCNC(=N)N)NC(=O)[C@@H]1CCCN1C(=O)[C@@H](N)CCCNC(=N)N)C(=O)N[C@@H](CCC(=O)NCCC(=O)NCCNS(=O)(=O)c1cccc2cnccc12)C(=O)N[C@@H](CCC)C(=O)N[C@@H](Cc1ccccc1)C(N)=O` [60020-95] (H-RPR[Nle]E([βAla-Ethylenediamine-Isoquinoline5sulfonyl])[Nva]F-NH2; N-terminus assumed) showed an IC50 [1, 10] of 2 µM, an inhibition at 1 µM [2, 7] of 46% and an inhibition at 1 µM [2, 8] of 90%. The IC50 [2, 11] was 3.3 µM.
With `CC[C@H](NC(=O)[C@H](CO)NC(=O)[C@@H](NC(=O)[C@H](CCCNC(=N)N)NC(=O)[C@@H]1CCCN1C(=O)[C@@H](N)CCCNC(=N)N)[C@@H](C)O)C(=O)NC(COC(=O)NCCNS(=O)(=O)c1cccc2cnccc12)Cc1ccccc1` (some centres unmarked) [PTR 6013] (H-RPRTS[Abu][X2]-{Ethylenediamine-Isoquinoline5sulfonyl}) the IC50 ([1]; Table 2, chimeric compounds, read-out: Activity PKA) was 1 µM and the IC50 ([2]; Table 2, chimeric compounds, read-out: Activity PKB) was 3 µM.
`CC(C)CC[C@H](NC(=O)[C@H](C)NC(=O)[C@H](CO)NC(=O)[C@@H](NC(=O)[C@H](CCCNC(=N)N)NC(=O)[C@@H]1CCCN1C(=O)[C@@H](N)CCCNC(=N)N)[C@@H](C)O)C(N)=O` [TY 60002-50, Arg-Pro-Arg-Thr-Ser-Ala-Hol] (H-RPRTSA[hLeu]-NH2; N-terminus and C-terminus assumed) was tested, and the IC50 [1, 12] was over 40 µM and the IC50 [2, 13] was 5 µM.
For `CC[C@H](NC(=O)[C@H](CO)NC(=O)[C@@H](NC(=O)[C@H](CCCNC(=N)N)NC(=O)[C@@H]1CCCN1C(=O)[C@@H](N)CCCNC(=N)N)C(C)C)C(=O)N[C@@H](Cc1ccccc1)C(N)=O` [TY 60002-61, Arg-Pro-Arg-Val-Ser-Abu-Phe] (H-RPRVS[Abu]F-NH2; N-terminus and C-terminus assumed), the IC50 [1, 12] was over 40 µM and the IC50 [2, 13] was 5 µM.
`CC[C@H](NC(=O)[C@H](CO)NC(=O)[C@@H](NC(=O)[C@H](CCCNC(=N)N)NC(=O)[C@@H]1CCCN1C(=O)[C@@H](N)CCCNC(=N)N)[C@@H](C)O)C(=O)N[C@@H](CCC(C)C)C(N)=O` [TY 60002-73, Arg-Pro-Arg-Thr-Ser-Abu-Hol] (H-RPRTS[Abu][hLeu]-NH2; N-terminus and C-terminus assumed) was tested, and the IC50 [1, 12] was over 40 µM, the IC50 ([1]; Table 10, accurate IC50 curve, peptide moiety alone, read-out: IC50 μM PKA) was 228 µM and the “% Inhibition PKA” value ([1]; plate screening, peptide moiety alone) was 8%. The IC50 [2, 13] was 5 µM, the IC50 ([2]; Table 10, accurate IC50 curve, peptide moiety alone, read-out: IC50 μM PKB) was 34 µM and the “% Inhibition PKB I” value ([2]; plate screening, peptide moiety alone, PKB I) was 44%.
Work on `CC(C)CC[C@H](NC(=O)[C@H](CN)NC(=O)[C@H](CO)NC(=O)[C@@H](NC(=O)[C@H](CCCNC(=N)N)NC(=O)[C@@H]1CCCN1C(=O)[C@@H](N)CCCNC(=N)N)[C@@H](C)O)C(N)=O` [TY 60002-96, Arg-Pro-Arg-Thr-Ser-Dap-Hol] (H-RPRTS[Dap][hLeu]-NH2; N-terminus and C-terminus assumed) yielded an IC50 [1, 12] of over 40 µM and an IC50 [2, 13] of 5 µM.
`C[C@@H](O)[C@H](NC(=O)[C@H](CCCNC(=N)N)NC(=O)[C@@H]1CCCN1C(=O)[C@@H](N)CCCNC(=N)N)C(=O)N[C@@H](CCC(=O)NCCCCC(=O)NCCNS(=O)(=O)c1cccc2cnccc12)C(=O)N[C@@H](CO)C(=O)N[C@@H](Cc1ccccc1)C(N)=O` [compound 6090] (H-RPRTE([Ava-Ethylenediamine-Isoquinoline5sulfonyl])SF-NH2; N-terminus assumed) gave an IC50 [1, 14] of 0.6 µM and an IC50 [2, 15] of 5.6 µM.
`CCCC[C@H](NC(=O)[C@H](CCCNC(=N)N)NC(=O)[C@@H]1CCCN1C(=O)[C@@H](N)CCCNC(=N)N)C(=O)N[C@@H](CCC(=O)NCCNS(=O)(=O)c1cccc2cnccc12)C(=O)N[C@@H](CO)C(=O)N[C@@H](Cc1ccccc1)C(N)=O` [compound 6128] was tested, and the IC50 [1, 14] was 0.1 µM and the IC50 [2, 15] was 9 µM.
`C[C@@H](O)[C@H](NC(=O)[C@H](CCCNC(=N)N)NC(=O)[C@@H]1CCCN1C(=O)[C@@H](N)CCCNC(=N)N)C(=O)N[C@@H](CC(=O)NCCNS(=O)(=O)c1cccc2cnccc12)C(=O)N[C@@H](CO)C(=O)N[C@@H](Cc1ccccc1)C(N)=O` [compound 6130] (H-RPRTD([Ethylenediamine-Isoquinoline5sulfonyl])SF-NH2; N-terminus assumed) was tested, and the IC50 [1, 14] was 0.053 µM and the IC50 [2, 15] was 9.5 µM.
For `CCCC[C@H](NC(=O)[C@H](CCCNC(=N)N)NC(=O)[C@@H]1CCCN1C(=O)[C@@H](N)CCCNC(=N)N)C(=O)N[C@@H](CCC(=O)NCCC(=O)NCCNS(=O)(=O)c1cccc2cnccc12)C(=O)N[C@@H](CC)C(=O)N[C@@H](Cc1ccccc1)C(N)=O` [compound 6138] (H-RPR[Nle]E([βAla-Ethylenediamine-Isoquinoline5sulfonyl])[Abu]F-NH2; N-terminus assumed), the “Apoptotic index (48 hours)” value [3] was 3.6 and the IC50 [2, 15] was 2 µM.
With “Arg-Pro-Arg-Nle-Glu-(5-mercaptoaminopropyl-isoquinoline)-Ser-Phe [PTR 6136]” the “Apoptotic index (48 hours)” value [3] was 2.4.
In the case of “Arg-Pro-Arg-Nva-Glu-(5-mercaptoaminopropyl-isoquinoline)-Ser-Phe [PTR 6134]”, the “Apoptotic index (48 hours)” value [3] is reported as 2.2.
For “Arg-Pro-Arg-Thr-Glu-(5-mercaptoaminopropyl-isoquinoline)-Ser-Phe [PTR 6104]”, the “Apoptotic index (48 hours)” value [3] was 2.9.
“Arg-Pro-Arg-Thr-Glu-(bAla-5-mercaptoaminopropyl-isoquinoline)-Ser-Phe [PTR 6102]” was tested, and the “Apoptotic index (48 hours)” value [3] was 2.7.
